Assay results: ChEMBL document CHEMBL4837226, “Discovery of pyrrole derivatives for the treatment of glioblastoma and chronic myeloid leukemia” (Eur J Med Chem, 2021)
Activity calls are given as the source filed them. No cut-off for these calls is given here.

Tests used:
KBM5 [1] = assay: Induction of apoptosis in human KBM5 cells expressing T315I mutant assessed as decrease in […] expression at 1 to 10 uM measured after 24 hrs by Western blot analysis; format: functional, cell-based; conditions: dose 1-10 µM
SW480 = assay: Cytotoxicity against human SW480 cells assessed as cell growth inhibition measured after 48 hrs by XTT dye based assay; format: functional; conditions: SW480, 48 h
[2] = molecular target: T1, DNA topoisomerase 1 (Homo sapiens) (UniProt P11387); assay: Inhibition of human recombinant topoisomerase I assessed as DNA cleavage using supercoiled pHOT1 plasmid DNA as substrate at 100 uM measured after 1 hr by agarose gel electrophoresis analysis
T1 sequence (whole entry): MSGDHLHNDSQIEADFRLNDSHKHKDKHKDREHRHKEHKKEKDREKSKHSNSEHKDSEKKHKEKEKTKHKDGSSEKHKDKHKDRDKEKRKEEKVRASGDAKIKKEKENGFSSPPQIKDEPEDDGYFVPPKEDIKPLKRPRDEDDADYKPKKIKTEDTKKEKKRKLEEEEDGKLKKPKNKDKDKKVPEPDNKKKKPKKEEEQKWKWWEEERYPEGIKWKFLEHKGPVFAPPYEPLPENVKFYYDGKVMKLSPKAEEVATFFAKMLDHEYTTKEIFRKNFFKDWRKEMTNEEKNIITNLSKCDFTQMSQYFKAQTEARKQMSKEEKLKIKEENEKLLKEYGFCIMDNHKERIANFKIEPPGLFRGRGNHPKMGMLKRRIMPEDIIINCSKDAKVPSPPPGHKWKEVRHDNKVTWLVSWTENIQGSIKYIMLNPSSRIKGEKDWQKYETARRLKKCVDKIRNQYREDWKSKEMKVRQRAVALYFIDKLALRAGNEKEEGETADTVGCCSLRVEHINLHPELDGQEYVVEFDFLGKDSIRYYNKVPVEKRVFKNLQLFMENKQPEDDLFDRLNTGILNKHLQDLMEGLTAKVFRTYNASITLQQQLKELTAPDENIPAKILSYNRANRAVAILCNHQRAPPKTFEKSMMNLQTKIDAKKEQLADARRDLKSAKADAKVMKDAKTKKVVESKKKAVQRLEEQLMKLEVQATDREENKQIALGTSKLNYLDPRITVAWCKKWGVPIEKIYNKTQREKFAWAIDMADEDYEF

U-87 MG [3] = assay: Antitumor activity against human U-87MG cells xenografted in BALB/c nu/nu mouse assessed as reduction in tumor weight at 25 mg/kg, ip administered every 2 days for 35 days; format: functional, organism-based; conditions: U-87MG ATCC, time 35.0 day
KU812 cell line [4] = assay: Potentiation of ponatinib-induced apoptosis in human KU812 cells assessed as increase in apoptotic cells at 5 nM measured after 48 hrs by annexin V staining based flow cytometry analysis; format: functional, cell-based
U-87 MG [5] = assay: Antitumor activity against human U-87MG cells xenografted in BALB/c nu/nu mouse assessed as reduction in CD133 marker expression at 25 mg/kg, ip administered every 2 days for 35 days by DAPI staining based immunofluorescence analysis; format: functional, organism-based; conditions: U-87MG ATCC, time 35.0 day
[6] = molecular target: T1, DNA topoisomerase 1 (Homo sapiens); assay: Inhibition of human recombinant topoisomerase I using supercoiled pHOT1 plasmid DNA as substrate at 10 to 100 uM measured after 1 hr by agarose gel electrophoresis analysis; conditions: dose 10-100 µM
U-87 MG [7] = assay: Antitumor activity against human U-87MG cells xenografted in BALB/c nu/nu mouse assessed as increase in activated caspase-3 expression at 25 mg/kg, ip administered every 2 days for 35 days by DAPI staining based immunofluorescence analysis; format: functional, organism-based; conditions: U-87MG ATCC, time 35.0 day
Tubulin (Homo sapiens) [8] = molecular target: T2, Tubulin (Homo sapiens) (UniProt P68371+Q9H4B7+P0DPH7+P68366+Q13509+Q71U36+P04350+Q3ZCM7+P07437+P68363+Q9BQE3+Q6PEY2+Q13885+Q9BVA1+Q9BUF5); assay: Inhibition of [3H]Colchicine binding to tubulin (unknown origin) at 5 uM measured after 10 mins by DEAE-Cellulose filter method relative to control; format: protein-complex assay
KBM5 [9] = assay: Cytotoxicity against imatinib mesylate resistant wild-type human KBM5 cells expressing T315I mutant assessed as cell growth inhibition measured after 48 hrs by MTT assay; format: functional, cell-based; conditions: KBM5, 48 h
U-87 MG [10] = assay: Antitumor activity against human U-87MG cells xenografted in BALB/c nu/nu mouse assessed as reduction in tumor volume at 25 mg/kg, ip administered every 2 days for 35 days; format: functional, organism-based; conditions: U-87MG ATCC, time 35.0 day
U-87 MG [11] = assay: Cytotoxicity against human U-87MG cells assessed as cell growth inhibition by measuring maximum efficacy measured after 48 hrs by MTS colorimetric assay relative to control; format: functional, U-87MG ATCC
U-87 MG [12] = assay: Antitumor activity against human U-87MG cells xenografted in BALB/c nu/nu mouse assessed as reduction in CD31 marker expression at 25 mg/kg, ip administered every 2 days for 35 days by DAPI staining based immunofluorescence analysis; format: functional, organism-based; conditions: U-87MG ATCC, time 35.0 day
KBM5 [13] = assay: Cytotoxicity against Imatinib mesylate sensitive wild-type human KBM5 cells assessed as cell growth inhibition measured after 48 hrs by MTT assay; format: functional, cell-based; conditions: KBM5, 48 h
[14] = molecular target: DNA topoisomerase II (Homo sapiens) (UniProt P11388+Q02880); assay: Inhibition of human topoisomerase II assessed as reduction in decantenation using kinetoplast DNA as a substrate at 100 uM measured after 1 hr by ethidium bromide staining based agarose gel electrophoresis analysis relative to control; format: protein assay
KU812 cell line [15] = assay: Cytotoxicity against Bcr-Abl expressing human KU812 cells assessed as cell growth inhibition measured after 48 hrs by MTT assay; format: functional, cell-based; conditions: KU812, 48 h
U-87 MG [16] = assay: Antitumor activity against human U-87MG cells xenografted in BALB/c nu/nu mouse assessed as reduction in GFAP expression at 25 mg/kg, ip administered every 2 days for 35 days by DAPI staining based immunofluorescence analysis; format: functional, organism-based; conditions: U-87MG ATCC, time 35.0 day
SW-620 = assay: Cytotoxicity against human SW-620 cells assessed as cell growth inhibition measured after 48 hrs by XTT dye based assay; format: functional; conditions: SW-620, 48 h
Tubulin = assay: Inhibition of tubulin polymerization (unknown origin) assessed as reduction in tubulin assembly preincubated for 15 mins followed by GTP addition by spectrophotometric method; format: protein-complex assay, Homo sapiens
MCF7 = assay: Cytotoxicity against human MCF7 cells assessed as cell growth inhibition measured after 96 hrs; format: functional, cell-based; conditions: MCF7, 96 h
Tubulin (Homo sapiens) [17] = molecular target: T2, Tubulin (Homo sapiens); assay: Inhibition of [3H]Colchicine binding to tubulin (unknown origin) at 1 uM measured after 10 mins by DEAE-Cellulose filter method relative to control; format: protein-complex assay
U-87 MG [18] = assay: Antitumor activity against human U-87MG cells xenografted in BALB/c nu/nu mouse assessed as reduction in Bcl2 protein expression at 25 mg/kg, ip administered every 2 days for 35 days by DAPI staining based immunofluorescence analysis; format: functional, organism-based; conditions: U-87MG ATCC, time 35.0 day
U-87 MG [19] = assay: Antitumor activity against human U-87MG cells xenografted in BALB/c nu/nu mouse assessed as reduction in Ki67 expression at 25 mg/kg, ip administered every 2 days for 35 days by DAPI staining based immunofluorescence analysis; format: functional, organism-based; conditions: U-87MG ATCC, time 35.0 day
KBM5 [20] = assay: Induction of apoptosis in human KBM5 cells expressing T315I mutant assessed as increase in cytochrome C expression at 1 to 10 uM measured after 24 hrs by western blot analysis; format: functional, cell-based; conditions: dose 1-10 µM

- inhibition [2]: Active
- inhibition [6]: inactive
- inhibition (Tubulin (Homo sapiens) [8]): 90%
- inhibition [14]: 100%
- IC50 (Tubulin): 390 nM
- inhibition (Tubulin (Homo sapiens) [17]): 71%
SMILES: COc1cc(C(=O)c2cn(-c3ccc(C)cc3)cc2-c2ccsc2)cc(OC)c1OC
- Activity (KBM5 [1]): Active
- IC50 (SW480): 656 nM
- Activity (U-87 MG [3]): Active
- Activity (KU812 cell line [4]): Active
- Activity (U-87 MG [5]): Active
- Activity (U-87 MG [7]): Active
- IC50 (KBM5 [9]): 8.8 nM
- Activity (U-87 MG [10]): Active
- Emax (U-87 MG [11]): 55.6%
- Activity (U-87 MG [12]): Active
- IC50 (KBM5 [13]): 8.2 nM
- IC50 (KU812 cell line [15]): 9.5 nM
- Activity (U-87 MG [16]): Active
- IC50 (SW-620): 111 nM
- IC50 (MCF7): 4 nM
- Activity (U-87 MG [18]): Active
- Activity (U-87 MG [19]): Active
- Activity (KBM5 [20]): Active
